Experimental data as given in patent US20210386829A1, “COMPOSITIONS AND METHODS FOR MODULATING CGRP SIGNALING TO REGULATE INNATE LYMPHOID CELL INFLAMMATORY RESPONSES” (The Broad Institute, Inc., priority 2018, published 2021).
Entries after “also recorded” stand apart in the source; their conditions may differ.

Columns and labels:
lung ILCs = assay: CellTrace Violet proliferation assay of sort-purified lung ILCs; type: cell-based, mouse; details: 3 days
Experimental: ILC in vitro culture. For in vitro experiments 5,000 ILCs/well were cultured in a 96 well round bottom plate with 20 ng/ml IL-7 (R&D Systems), 200 ng/ml IL-25 (R&D Systems) or 20 ng/ml, 2 ng/ml or 0.2 ng/ml IL-33 (BioLegend) with or without 1 μg/ml Neuromedin U (US Biological). In some cases purified CD90.2^+ lung cells were first labeled with CellTrace Violet (Thermo Fisher Scientific), then sorted as described above, and cultured for 3 days under the indicated conditions.
Proliferation assay. Lung cells were isolated and enriched for CD90.2 cells as described above, followed by labeling with CellTrace Violet (Cat #C34557; Thermo Fisher Scientific) according to manufacturer's instructions and subsequently stained with antibodies. After 3-day culture of sort-purified ILCs with 20 ng/ml IL-7 either alone or in combination with 200 ng/ml IL-33, 100 pM CGRP or 100 nM CGRP followed by staining, expression of CellTrace Violet in live (7AAD−) ILCs was analyzed on a BD LSRFortessa (BD Biosciences).

[1] = test system: IL-25+NMU-induced airway inflammation; assay: IL-25+NMU-induced airway inflammation, intranasal co-administration of CGRP; type: in vivo, mouse
Experimental: Cytokine-induced airway inflammation. Mice received nasally 500 ng IL-25, 500 ng IL-33, 20 ug NMU or 6.65 ug CGRP diluted in DPBS for three consecutive days. For nasal administration, mice were lightly anesthetized with Isoflurane (Cat #07-893-1389; Patterson Veterinary). For induction of inflammatory ILC2s, mice received intraperitoneally 500 ng IL-25 for three consecutive days. One day after the last treatment, mice were euthanized and perfused with 8 ml cold PBS via the right heart ventricle. After exposure of the trachea, a small incision was made at the top of the trachea and a curved gavage needle was inserted. Lungs were washed with 1.5 ml cold PBS via the needle and the retrieved bronchoalveolar lavage fluid was centrifuged at 1300 rpm for 5 min at 4 C. After centrifugation, the supernatant was frozen at −20° C. and the cell pellet was resuspended in 250 ul complete medium and stored on ice until flow cytometric analysis. The post-caval lung lobe was transferred into 10% buffered formalin and stored at room temperature until paraffin embedding for histological analysis. The other lung lobes were dissociated using the lung dissociation kit (Cat #130-095-927; Miltenyi Biotec) and automated tissue dissociator (gentleMACS; Miltenyi Biotec) as described above with the adjustment that after running program lung_02, the single cell suspension was centrifuged at 1300 rpm for 5 min at 4° C. and 1 ml of the supernatant was frozen at −20° C. Single-cell suspension was resuspended in complete cell culture medium and stored on ice until further processing.
For cell counts, lung cells were transferred into FACS tubes and stained with 7AAD. Precision Count Beads (Cat #424902; BioLegend) were added according to manufacturer's instructions. Cells and beads were acquired on a BD LSRFortessa (BD Biosciences) and cell numbers were calculated based on number of acquired live (7AAD−) cells and number of acquired beads.
For flow cytometric analysis, lung cells were transferred into a 96 well V-bottom plate and stained with surface antibodies for 20 min at 4° C. in the dark. Cells were washed twice with DPBS containing 2% fetal bovine serum and transferred into 1.2 ml tubes for analysis by flow cytometry. For intracellular cytokine staining, cells were incubated in complete cell culture medium with 50 ng/ml phorbol 12-myristate 13-acetate (Sigma-Aldrich), 1 uM ionomycin (Sigma-Aldrich) and GolgiStop (Cat #554724; BD Biosciences) in a humidified incubator at 37° C. and 10% CO2. After 5 hours, cells were transferred into 96 well V-bottom plate, stained with Fixable Viability Dye eFluor 506 (Cat #65-0866-14; Thermo Fisher) and surface antibodies for 20 min at 4° C. in the dark and washed twice with DPBS containing 2% fetal bovine serum. Then, cells were incubated with BD Cytofix/Cytoperm Buffer (Cat #51-2090KZ; BD Biosciences) for 20 min, followed by a wash with BD Perm/Wash Buffer (Cat #51-2091KZ; BD Biosciences). Subsequently, cells were incubated with antibodies targeting intracellular proteins diluted in BD Perm/Wash Buffer for 20 min and after two wash steps, transferred into 1.2 ml tubes for analysis by flow cytometry. For ki67 staining, cells were stained for surface antibodies as described above, fixed with a solution of Fixation/Permeabilization Concentrate (Cat #00-5123-43; Invitrogen) and Fixation/Perm Diluent (Cat #00-5223-56; Invitrogen) for 20 min, washed with Permeabilization Buffer (Cat #00-8333-56; Invitrogen). Then, cells were incubated with ki67 antibody diluted in Permeabilization Buffer for 20 min, washed and transferred into FACS tubes. Cells were analyzed on a BD LSRFortessa (BD Biosciences) flow cytometer with 5 lasers (355 nm, 405 nm, 488 nm, 561 nm and 640 nm). Data was analyzed using FlowJo v10.5.0 software and cell populations were gated as described previously (Wallrapp 2017).
RNA isolation and cDNA synthesis. […]

CGRP: neuropeptide calcitonin gene-related peptide (encoded by Calca), ligand of the Ramp1/Calcrl receptor; given at 100 nM in vitro, 6.65 ug nasally
IL-33-activated ILCs that proliferated (lung ILCs; IL-7+IL-33 in the presence of 100 nM CGRP): less than 10%
IL-33-induced proliferation of ILCs (lung ILCs; IL-33 with 100 pM or 100 nM CGRP vs IL-33 alone): inhibits IL-33-induced proliferation in a dose-dependent manner; also recorded: strongly inhibited
lung ILC frequencies and numbers ([1]; IL-25+CGRP vs IL-25, nasal, three consecutive days): no effect
IL-5 protein in lung tissue and BALF ([1]; IL-25+NMU+CGRP vs IL-25+NMU): non-significant trend towards reduced expression
IL-13 protein in lung tissue and bronchoalveolar lavage fluid ([1]; IL-25+NMU+CGRP vs IL-25+NMU): reduced
ILC proliferation (intracellular Ki67) ([1]; IL-25+NMU+CGRP vs IL-25+NMU): significantly decreased
eosinophil frequency and numbers in the BAL ([1]; IL-25+NMU+CGRP vs IL-25+NMU): towards decreased
lung ILC frequencies and numbers ([1]; IL-25+NMU+CGRP vs IL-25+NMU): strong reduction
type 2 cytokine mRNA in lung tissue ([1]; IL-25+NMU+CGRP vs IL-25+NMU): diminished expression
